Test results: PMC4838304, “Effective Design of Multifunctional Peptides by Combining Compatible Functions” (PLoS Computational Biology, 2016)
Ends that are not written are not given here.

System: Escherichia coli strain DH5α
Experiment: microbe, parasite or virus in culture
Format: cell-based
Conditions: for MIC: DH5α, 24 h, read-out: E. coli MIC for 50% inhibition
Description: If CPP, DNA binding and AMP activities are compatible, the designed peptides should inhibit bacterial growth. Here we exposed E. coli DH5α cells to varying low concentrations of the designed peptides as well as several controls (see Fig 4). […] To test whether α-factor was important for AMP activity we also tested pure α-factor, pure NLS, the optimized NLS fitting CPP rules (NLS-CE) and the Iztli-1 peptide, a previously reported peptide with an embedded α-factor specifically designed to have antibacterial activity. […] A linear trend could be observed between concentration and growth inhibition (regression lines with standard deviations shown in Fig 6). […] The minimal inhibitory concentrations for E. coli are reported in Table 2 (growth curves are shown in S4 Fig).
Fig 6 Antibacterial activity. DH5α E. coli cells were treated with varying concentrations of peptides ranging from 0 to 16 μM for the peptides and 0 to 48 μM for Ampicillin. The relative area under the growth curve measured the growth inhibition. Measurements from four repetitions distributed onto two different plates are shown as dots colored by their respective concentrations. Linear regressions are shown as blue lines and their respective standard errors as blue shades. Dashed lines indicate the mean area under the curve for the H2O controls and its 50% value respectively. Minimal inhibitory concentrations to achieve 50% or 100% of cell growth inhibition are reported.
Escherichia coli strain DH5α was grown for 12 hours to mid-log phase and diluted to 8·10^5 cells/ml by using the reference OD obtained by absorption spectroscopy. Each sample 100μL culture was treated with 50μL solution containing the respective peptide in the desired concentration or water in the case of the controls. Growth curves were measured on two 96 well half area plates with two replicates each followed for 24h using a plate reader (Synergy, USA). In order to minimize plate-specific effects due to variations in loading time or initial cell numbers, different plates measurements were normalized by the time-point where the water control samples reached their half-maximal OD before combining. The respective minimum from each growth curve was subtracted from the normalized data from individual or combined plates. Areas under the curves were obtained by applying a linear interpolation to the OD curves, which was then integrated exactly. Growth rates were obtained by log-transforming the growth curves, identifying the exponential phase by the linear parts in that log-transformation (OD600 between 0.05 and 0.5) and performing a linear regression in the exponential phase with the slope denoting the respective growth rate. All mentioned methodology was implemented in R (www.r-project.org) and is available as open source at http://github.com/cdiener/dcf.
Using the slope of the linear regressions determined in these experiments, we estimated the minimal inhibitory concentration (MIC) for E. coli of our 3 CPP designed peptides (α-NLS-C, NLS-α-CE and chimera) and tested it experimentally.

[1] = E. coli DH5α, peptides 0 to 16 μM

Row | Sequence | MIC [µM] | concentration showing partial growth inhibition [1] [µM] | concentration abolishing E. coli growth completely [1] [µM]
1 | KRRWRFVWMNPKKKRKVPPWPYLLWWHWLQLKPGQPMY [chimera] | 4 | 2 | –
2 | FRKWRRKPKKKRKVWWRKVKRRWHWLQLKPGQPMY [NLS-α-CE] | <2 | – | 2
